These results are taken from ChEMBL document CHEMBL1138816, “Design and synthesis of novel N-acetylgalactosamine-terminated glycolipids for targeting of lipoproteins to the hepatic asialoglycoprotein receptor” (J Med Chem, 2004).

For data set [1], the system named is Mus musculus. Kind of data set: Percentage liver uptake of [125I]LDL upon intravenous injection to C57BL/6J mice. The data set is classed as functional.
Data set [2] in a line: Half-life in C57BL/6J mice upon intravenous administration of 3.33 mg/kg. Further details: dose 3.33 mg/kg, route intravenous. The data set is classed as ADME, organism-based. The settings on record: mouse, in vivo.
Data set [3] is described as follows: Binding affinity for mouse asialoglycoprotein receptor using [125I]-glycolipid3.
The species entered for data set [4] is Mus musculus. Kind of data set: Lipoprotein lowering effect in mice at 3-6 hrs was determined. The data set is classed as functional.
The nature of data set [5]: Uptake by the liver in mice at 60 min after injection. The data set is classed as ADME, tissue-based. The settings on record: mouse, in vivo, 1 h.
Data set [6] deals with Mus musculus. The data set is described as follows: Percentage liver uptake of [3H]HDL upon intravenous injection to C57BL/6J mice.

In the case of `CCCCCCCC/C=C\CCCCCCCC(=O)N[C@H]1CC[C@@]2(C)C(CC[C@H]3[C@@H]4CC[C@H](C(C)CCC(=O)N[C@@H](Cc5ccc(O)cc5)C(=O)NCC(=O)NC(COCCC(=O)NCCOCCOCCOC5OC(CO)C(O)C(O)C5NC(C)=O)(COCCC(=O)NCCOCCOCCOC5OC(CO)C(O)C(O)C5NC(C)=O)COCCC(=O)NCCOCCOCCOC5OC(CO)C(O)C(O)C5NC(C)=O)[C@@]4(C)CC[C@@H]32)C1` (stereo partly specified), the values for the Activity in data set [1] and in data set [6] were 70% and 78%, respectively. Moreover, the half-life (commonly the time in which the quantity being followed falls by half) in data set [2] was around 30 min. The Ki – broadly, a measure of affinity in units of concentration, obtained from inhibition or displacement – in data set [3] is 2 nM. Besides, the Peak effect in data set [4] turned out to be 20%. Moreover, the Uptake in data set [5] worked out at 44%.
